[1] abbreviates: heating temp. 60 °C, obs. temp. 25 °C.
Setting [2] is: heating temp. 40 °C, obs. temp. 40 °C.
The mark [3] stands for this setting: heating temp. 60 °C, obs. temp. 40 °C.
Setting [4] is: Volumetric flask method, heating temp. 60 °C, obs. temp. 25 °C.
Where [5] appears, read: section 'Solubility by volumetric flask method', heating temp. 40 °C, obs. temp. 40 °C.

The text below walks through data of US10533015B1, “Opioid receptor antagonist prodrugs” (Nirsum Laboratories, Inc., priority 2019, dated 2020).

Like-named read-outs stand apart in the source and are kept apart here.

Take `CCCCCCCCCCCCOC(=O)OCOc1ccc2c3c1O[C@H]1C(=O)CC[C@@]4(O)C(C2)N(CC2CC2)CC[C@]314` [Compound 29, (((4aS,7aR,12bS)-3-(cyclopropylmethyl)-4a-hydroxy-7-oxo-2,3,4,4a,5,6,7,7a-octahydro-1H-4,12-methanobenzofuro[3,2-e]isoquinolin-9-yl)oxy)methyl dodecyl carbonate]: under setting [1], the “Approximate Solubility (mg/mL) in Excipient: Cottonseed oil” value (from here on “Approximate Solubility … Cottonseed oil”) is given as over 410.2 mg/mL and the “Approximate Solubility (mg/mL) in Excipient: Sesame oil” value (from here on “Approximate Solubility … Sesame oil”) was over 416.5 mg/mL. Moreover, the “Equilibrium solubility (mg/mL) Water” value under setting [2] is reported as under 0.001 mg/mL.

With `CCCCCCCC/C=C\CCCCCCCC(=O)Oc1ccc2c3c1O[C@H]1C(=O)CC[C@@]4(O)C(C2)N(CC2CC2)CC[C@]314` [Compound 41, (4aS,7aR,12bS)-3-(cyclopropylmethyl)-4a-hydroxy-7-oxo-2,3,4,4a,5,6,7,7a-octahydro-1H-4,12-methanobenzofuro[3,2-e]isoquinolin-9-yl oleate], under setting [2], the “Approximate Solubility … Cottonseed oil” value is given as over 407 mg/mL and the “Approximate Solubility (mg/mL) in Excipient: Ethanol” value (“Approximate Solubility … Ethanol” below) is over 201 mg/mL. For the same compound, under setting [1], the “Approximate Solubility … Cottonseed oil” value is on record as under 50 mg/mL and the “Approximate Solubility … Sesame oil” value is on record as under 50 mg/mL.

With `C=C1CC[C@@]2(O)C3Cc4ccc(OC(=O)CCCCCCC/C=C\C/C=C\CCCCC)c5c4[C@@]2(CCN3CC2CC2)[C@H]1O5` [Compound 37, (4aS,7aS,12bS)-3-(cyclopropylmethyl)-4a-hydroxy-7-methylene-2,3,4,4a,5,6,7,7a-octahydro-1H-4,12-methanobenzofuro[3,2-e]isoquinolin-9-yl (9Z,12Z)-octadeca-9,12-dienoate], the “Approximate Solubility (mg/mL) in Excipient: Castor oil” value (Castor oil, heating temp. 40 °C, obs. temp. 40 °C) was over 226 mg/mL. Moreover, under setting [1], the “Approximate Solubility … Cottonseed oil” value was 68.5-82^ mg/mL and the “Approximate Solubility … Sesame oil” value is 80 to 102 mg/mL. In addition, under setting [2], the “Approximate Solubility … Ethanol” value lay within 75 to 90 mg/mL and the “Approximate Solubility … Sesame oil” value was over 408.4 mg/mL.

Take `C=C1CC[C@@]2(O)C3Cc4ccc(OC(=O)CCCCCCCCCCCCCCCCC)c5c4[C@@]2(CCN3CC2CC2)[C@H]1O5` [Compound 12, (4aS,7aS,12bS)-3-(cyclopropylmethyl)-4a-hydroxy-7-methylene-2,3,4,4a,5,6,7,7a-octahydro-1H-4,12-methanobenzofuro[3,2-e]isoquinolin-9-yl stearate]: the “Approximate Solubility … Cottonseed oil” value by setting is: under setting [2], 100 to 120 mg/mL; under setting [1], under 51 mg/mL; under setting [3], over 398.5 mg/mL. Further, the “Approximate Solubility … Ethanol” value under setting [2] fell in the range of 65 to 75 mg/mL. The “Approximate Solubility … Sesame oil” value by setting is: under setting [2], 70 to 95 mg/mL; under setting [1], under 50 mg/mL; under setting [3], over 411.1 mg/mL.

On to `C=C1CC[C@@]2(O)C3Cc4ccc(OC(=O)CCCCCCC/C=C\C/C=C\C/C=C\CC)c5c4[C@@]2(CCN3CC2CC2)[C@H]1O5` [Compound 20, (4aS,7aS,12bS)-3-(cyclopropylmethyl)-4a-hydroxy-7-methylene-2,3,4,4a,5,6,7,7a-octahydro-1H-4,12-methanobenzofuro[3,2-e]isoquinolin-9-yl (9Z,12Z,15Z)-octadeca-9,12,15-trienoate], for which, under setting [2], the “Approximate Solubility … Cottonseed oil” value is recorded as over 414 mg/mL, the “Approximate Solubility … Ethanol” value is 157 to 197 mg/mL, the “Approximate Solubility … Sesame oil” value was over 406 mg/mL and the “Equilibrium solubility (mg/mL) Water” value is recorded as under 0.0002 mg/mL. Moreover, under setting [1], the “Approximate Solubility … Cottonseed oil” value fell in the range of 68 to 82 mg/mL and the “Approximate Solubility … Sesame oil” value fell in the range of 80 to 100 mg/mL.

In the case of `C=C1CC[C@@]2(O)C3Cc4ccc(OCOC(=O)CCCCCCCCCCCCCCC)c5c4[C@@]2(CCN3CC2CC2)[C@H]1O5` [Compound 46, (((4aS,7aS,12bS)-3-(cyclopropylmethyl)-4a-hydroxy-7-methylene-2,3,4,4a,5,6,7,7a-octahydro-1H-4,12-methanobenzofuro[3,2-e]isoquinolin-9-yl)oxy)methyl hexadecanoate], under setting [1], the “Approximate Solubility … Cottonseed oil” value was over 395.5 mg/mL and the “Approximate Solubility … Sesame oil” value was 202 to 269 mg/mL. Moreover, the “Equilibrium solubility (mg/mL) Water” value under setting [2] was under 0.001 mg/mL.

Consider `C=C1CC[C@@]2(O)C3Cc4ccc(OCOC(=O)OCCCCCCCCCCC)c5c4[C@@]2(CCN3CC2CC2)[C@H]1O5` [Compound 5, (((4aS,7aS,12bS)-3-(cyclopropylmethyl)-4a-hydroxy-7-methylene-2,3,4,4a,5,6,7,7a-octahydro-1H-4,12-methanobenzofuro[3,2-e]isoquinolin-9-yl)oxy)methyl undecyl carbonate], for which, under “Volumetric flask method, cottonseed oil, heating temp. 60 °C, obs. temp. 25 °C”, the “Solubility by volumetric flask method: Cottonseed oil” value is on record as over 401.8 mg/mL. In addition, the “Solubility by volumetric flask method: Sesame oil” value under setting [4] was over 400.6 mg/mL. Also, the “Equilibrium solubility (mg/mL) Water” value under setting [5] is listed as under 0.001 mg/mL.

For `CCCCCCCCCCCCCCCCOC(=O)OCOc1ccc2c3c1O[C@H]1C(=O)CC[C@@]4(O)C(C2)N(CC2CC2)CC[C@]314` [Compound 47, (((4aS,7aR,12bS)-3-(cyclopropylmethyl)-4a-hydroxy-7-oxo-2,3,4,4a,5,6,7,7a-octahydro-1H-4,12-methanobenzofuro[3,2-e]isoquinolin-9-yl)oxy)methyl hexadecyl carbonate], the “Approximate Solubility … Cottonseed oil” value under setting [1] is given as over 405.5 mg/mL. For the same compound, the “Equilibrium solubility (mg/mL) Water” value under setting [2] is under 0.001 mg/mL.

Take `C=C1CC[C@@]2(O)C3Cc4ccc(OCOC(=O)CCCCCCCCCCC)c5c4[C@@]2(CCN3CC2CC2)[C@H]1O5` [Compound 44, (((4aS,7aS,12bS)-3-(cyclopropylmethyl)-4a-hydroxy-7-methylene-2,3,4,4a,5,6,7,7a-octahydro-1H-4,12-methanobenzofuro[3,2-e]isoquinolin-9-yl)oxy)methyl dodecanoate]: under setting [1], the “Approximate Solubility … Cottonseed oil” value was over 407 mg/mL and the “Approximate Solubility … Sesame oil” value was 208 to 231 mg/mL. Also, the “Equilibrium solubility (mg/mL) Water” value under setting [2] is on record as under 0.001 mg/mL.

Turning to `C=C1CC[C@@]2(O)C3Cc4ccc(OC(=O)CCCCCCCCCCC/C=C\CCCCCCCC)c5c4[C@@]2(CCN3CC2CC2)[C@H]1O5` [Compound 13, (4aS,7aS,12bS)-3-(cyclopropylmethyl)-4a-hydroxy-7-methylene-2,3,4,4a,5,6,7,7a-octahydro-1H-4,12-methanobenzofuro[3,2-e]isoquinolin-9-yl (Z)-docos-13-enoate], under setting [2], the “Approximate Solubility … Cottonseed oil” value is over 381 mg/mL, the “Approximate Solubility … Ethanol” value is given as over 214 mg/mL and the “Approximate Solubility … Sesame oil” value is recorded as over 406 mg/mL. Moreover, under setting [1], the “Approximate Solubility … Cottonseed oil” value was under 50 mg/mL and the “Approximate Solubility … Sesame oil” value fell in the range of 91 to 121 mg/mL.

Regarding `CCCCCCCC/C=C/CCCCCCCC(=O)Oc1ccc2c3c1O[C@H]1C(=O)CC[C@@]4(O)C(C2)N(CC2CC2)CC[C@]314` [Compound 8, (4aS,7aR,12bS)-3-(cyclopropylmethyl)-4a-hydroxy-7-oxo-2,3,4,4a,5,6,7,7a-octahydro-1H-4,12-methanobenzofuro[3,2-e]isoquinolin-9-yl (E)-octadec-9-enoate], the “Approximate Solubility … Cottonseed oil” value (heating 60 °C, obs. 25 °C, initial failed batch due to non-optimized synthesis) is recorded as under 50 mg/mL. Also, under setting [4], the “Solubility by volumetric flask method: Sesame oil” value was over 399.8 mg/mL. Moreover, the “Equilibrium solubility (mg/mL) Water” value under setting [5] was under 0.001 mg/mL.

With `CCCCCCCC/C=C/CCCCCCCC(=O)OCOc1ccc2c3c1O[C@H]1C(=O)CC[C@@]4(O)C(C2)N(CC2CC2)CC[C@]314` [Compound 26, (((4aS,7aR,12bS)-3-(cyclopropylmethyl)-4a-hydroxy-7-oxo-2,3,4,4a,5,6,7,7a-octahydro-1H-4,12-methanobenzofuro[3,2-e]isoquinolin-9-yl)oxy)methyl (E)-octadec-9-enoate], under setting [1], the “Approximate Solubility … Cottonseed oil” value is listed as 204.3-239^ mg/mL and the “Approximate Solubility … Sesame oil” value is reported as under 354 mg/mL. In addition, under setting [2], the “Equilibrium solubility (mg/mL) Water” value is recorded as under 0.001 mg/mL.

Regarding `CCCCCCCCCCCCCCOC(=O)OCOc1ccc2c3c1O[C@H]1C(=O)CC[C@@]4(O)C(C2)N(CC2CC2)CC[C@]314` [Compound 27, (((4aS,7aR,12bS)-3-(cyclopropylmethyl)-4a-hydroxy-7-oxo-2,3,4,4a,5,6,7,7a-octahydro-1H-4,12-methanobenzofuro[3,2-e]isoquinolin-9-yl)oxy)methyl tetradecyl carbonate], under setting [1], the “Approximate Solubility … Cottonseed oil” value is recorded as over 394.7 mg/mL and the “Approximate Solubility … Sesame oil” value was over 399.2 mg/mL. The “Equilibrium solubility (mg/mL) Water” value under setting [2] is given as under 0.001 mg/mL.

Take `C=C1CC[C@@]2(O)C3Cc4ccc(OC(=O)OCCCCCCCCCCCCCCCCCCCC)c5c4[C@@]2(CCN3CC2CC2)[C@H]1O5` [Compound 28, (4aS,7aS,12bS)-3-(cyclopropylmethyl)-4a-hydroxy-7-methylene-2,3,4,4a,5,6,7,7a-octahydro-1H-4,12-methanobenzofuro[3,2-e]isoquinolin-9-yl icosyl carbonate]: under setting [1], the “Approximate Solubility … Cottonseed oil” value is listed as under 50.2 mg/mL and the “Approximate Solubility … Sesame oil” value was under 50.6 mg/mL. Further, the “Equilibrium solubility (mg/mL) Water” value under setting [2] was under 0.001 mg/mL.

For the compound `CCCCCCCCCCCCCCCC(=O)OCOc1ccc2c3c1O[C@H]1C(=O)CC[C@@]4(O)C(C2)N(CC2CC2)CC[C@]314` [Compound 49, (((4aS,7aR,12bS)-3-(cyclopropylmethyl)-4a-hydroxy-7-oxo-2,3,4,4a,5,6,7,7a-octahydro-1H-4,12-methanobenzofuro[3,2-e]isoquinolin-9-yl)oxy)methyl hexadecanoate], under setting [1], the “Approximate Solubility … Cottonseed oil” value is under 50 mg/mL and the “Approximate Solubility … Sesame oil” value is under 51 mg/mL.
